Source: patent USRE50082E1, “(5,6-dihydro)pyrimido[4,5-e]indolizines” (NETHERLANDS TRANSLATIONAL RESEARCH CENTER B.V., priority 2014, dated 2024)

These compounds were tested on MOLT-4 cancer cell line (assay: Cell proliferation assay, MOLT-4 cancer cell line (ATPlite)). Conditions: Homo sapiens, MOLT-4; 72 hours incubation, ATPlite 1Step; read-out: IC50 MOLT-4 cell proliferation.
Assay type: cell-based
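Further: luminescence read-out, percent growth versus compound-free DMSO wells as maximum growth, start-of-incubation signal separating growth from cell death, IC50 from logistic curve fit.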

Cc1cccc(C)c1NC(=O)c1ccn2c1CCc1cnc(Nc3ccc(C(=O)NC4CCN(C)CC4)cc3OC(F)F)nc1-2 [Example 37, 2-[2-(Difluoromethoxy)-4-[(1-methyl-4-piperidyl)carbamoyl]anilino]-N-(2,6-dimethylphenyl)-5,6-dihydropyrimido[4,5-e]indolizine-7-carboxamide] and COc1cc(OC2CCN(C)CC2)ccc1Nc1ncc2c(n1)-n1ccc(C(=O)Nc3c(C)cccc3C)c1CC2 [Example 39, N-(2,6-dimethylphenyl)-2-[2-methoxy-4-[(1-methyl-4-piperidyl)oxy]anilino]-5,6-dihydropyrimido[4,5-e]indolizine-7-carboxamide] cannot be ordered by IC50: less than 50 nM for the first, less than 50 nM for the second.

Compared with CCc1cccc(CC)c1NC(=O)c1ccn2c1CCc1cnc(Nc3ccc(-c4cnn(C)c4)cc3OC)nc1-2 [Example 38, N-(2,6-diethylphenyl)-2-[2-methoxy-4-(1-methylpyrazol-4-yl)anilino]-5,6-dihydropyrimido[4,5-e]indolizine-7-carboxamide], CCc1cccc(CC)c1NC(=O)c1ccn2c1CCc1cnc(Nc3ccc(OC4CCN(C)C4)cc3OC)nc1-2 (stereo not shown) [Example 59, N-(2,6-diethylphenyl)-2-[2-methoxy-4-(1-methylpyrrolidin-3-yl)oxy-anilino]-5,6-dihydropyrimido[4,5-e]indolizine-7-carboxamide] is lower in IC50: 50 to 150 nM for the first, less than 50 nM for the second. The second is the more potent here.

CCc1cccc(C)c1NC(=O)c1ccn2c1CCc1cnc(Nc3ccc(OC4CCN(C)CC4)cc3OC)nc1-2 [Example 40, N-(2-ethyl-6-methyl-phenyl)-2-[2-methoxy-4-[(1-methyl-4-piperidyl)oxy]anilino]-5,6-dihydropyrimido[4,5-e]indolizine-7-carboxamide] and CCc1cccc(CC)c1NC(=O)c1ccn2c1CCc1cnc(Nc3ccc(OC4CCN(C)CC4)cc3OC)nc1-2 [Example 43, N-(2,6-diethylphenyl)-2-[2-methoxy-4-[(1-methyl-4-piperidyl)oxy]anilino]-5,6-dihydropyrimido[4,5-e]indolizine-7-carboxamide] cannot be ordered by IC50: less than 50 nM for the first, less than 50 nM for the second.

COc1cc(OC2CCN(C)CC2)ccc1Nc1ncc2c(n1)-n1ccc(C(=O)Nc3c(C)cccc3Cl)c1CC2 [Example 41, N-(2-chloro-6-methyl-phenyl)-2-[2-methoxy-4-[(1-methyl-4-piperidyl)oxy]anilino]-5,6-dihydropyrimido[4,5-e]indolizine-7-carboxamide] and COc1cc(OC2CCN(C)CC2)ccc1Nc1ncc2c(n1)-n1ccc(C(=O)Nc3c(C)cccc3Br)c1CC2 [Example 42, N-(2-bromo-6-methyl-phenyl)-2-[2-methoxy-4-[(1-methyl-4-piperidyl)oxy]anilino]-5,6-dihydropyrimido[4,5-e]indolizine-7-carboxamide] cannot be ordered by IC50: less than 50 nM for the first, less than 50 nM for the second.

First: COCCn1nc(C)c(NC(=O)c2ccn3c2CCc2cnc(Nc4ccc(OC5CCN(C)CC5)cc4OC)nc2-3)c1C [Example 44, N-[1-(2-methoxyethyl)-3,5-dimethyl-pyrazol-4-yl]-2-[2-methoxy-4-[(1-methyl-4-piperidyl)oxy]anilino]-5,6-dihydropyrimido[4,5-e]indolizine-7-carboxamide]
Second: CCc1n[nH]c(CC)c1NC(=O)c1ccn2c1CCc1cnc(Nc3ccc(OC4CCN(C)CC4)cc3C)nc1-2 [Example 47, N-(3,5-diethyl-1H-pyrazol-4-yl)-2-[2-methyl-4-[(1-methyl-4-piperidyl)oxy]anilino]-5,6-dihydropyrimido[4,5-e]indolizine-7-carboxamide]
The IC50 of the first is higher: 50 to 150 nM for the first, less than 50 nM for the second.

Cc1cc(OC2CCN(C)CC2)ccc1Nc1ncc2c(n1)-n1ccc(C(=O)Nc3c(C)cccc3Cl)c1CC2 [Example 46, N-(2-chloro-6-methyl-phenyl)-2-[2-methyl-4-[(1-methyl-4-piperidyl)oxy]anilino]-5,6-dihydropyrimido[4,5-e]indolizine-7-carboxamide] and Cc1cc(N2CCN(C)CC2)ccc1Nc1ncc2c(n1)-n1ccc(C(=O)Nc3c(C)cccc3C)c1CC2 [Example 63, N-(2,6-dimethylphenyl)-2-[2-methyl-4-(4-methylpiperazin-1-yl)anilino]-5,6-dihydropyrimido[4,5-e]indolizine-7-carboxamide] cannot be ordered by IC50: less than 50 nM for the first, less than 50 nM for the second.

Compared with COc1cc(OCCN(C)C)ccc1Nc1ncc2c(n1)-n1ccc(C(=O)Nc3c(C)cccc3Br)c1CC2 [Example 51, N-(2-bromo-6-methyl-phenyl)-2-[4-(2-dimethylaminoethyloxy)-2-methoxy-anilino]-5,6-dihydropyrimido[4,5-e]indolizine-7-carboxamide], CCc1cccc(CC)c1NC(=O)c1ccn2c1CCc1cnc(Nc3ccc(OCCN(C)C)cc3OC)nc1-2 [Example 52, N-(2,6-diethylphenyl)-2-[4-(2-dimethylaminoethyloxy)-2-methoxy-anilino]-5,6-dihydropyrimido[4,5-e]indolizine-7-carboxamide] is higher in IC50: less than 50 nM for the first, 50 to 150 nM for the second.

First: CCc1n[nH]c(CC)c1NC(=O)c1ccn2c1CCc1cnc(Nc3ccc(OCCN(C)C)cc3OC)nc1-2 [Example 53, N-(3,5-diethyl-1H-pyrazol-4-yl)-2-[4-(2-dimethylaminoethyloxy)-2-methoxy-anilino]-5,6-dihydropyrimido[4,5-e]indolizine-7-carboxamide]
Second: COc1cc(N2CCN(C)CC2)ccc1Nc1ncc2c(n1)-n1ccc(C(=O)Nc3c(Cl)cccc3Cl)c1CC2 [Example 61, N-(2,6-dichlorophenyl)-2-[2-methoxy-4-(4-methylpiperazin-1-yl)anilino]-5,6-dihydropyrimido[4,5-e]indolizine-7-carboxamide]
The IC50 of the first is higher: 50 to 150 nM for the first, less than 50 nM for the second.

Cc1cc(N2CCOCC2)ccc1Nc1ncc2c(n1)-n1ccc(C(=O)Nc3c(C)cccc3C)c1CC2 [Example 56, N-(2,6-dimethylphenyl)-2-(2-methyl-4-morpholino-anilino)-5,6-dihydropyrimido[4,5-e]indolizine-7-carboxamide] and Cc1cc(N2CCNCC2)ccc1Nc1ncc2c(n1)-n1ccc(C(=O)Nc3c(C)cccc3C)c1CC2 [Example 58, N-(2,6-dimethylphenyl)-2-(2-methyl-4-piperazin-1-yl-anilino)-5,6-dihydropyrimido[4,5-e]indolizine-7-carboxamide] cannot be ordered by IC50: less than 50 nM for the first, less than 50 nM for the second.

COc1cc(OC2CCN(C)CC2)ccc1Nc1ncc2ccc3c(C(=O)Nc4c(C)cccc4C)ccn3c2n1 [Example 62, N-(2,6-dimethylphenyl)-2-[2-methoxy-4-[(1-methyl-4-piperidyl)oxy]anilino]pyrimido[4,5-e]indolizine-7-carboxamide] and CCc1cccc(C)c1NC(=O)c1ccn2c1CCc1cnc(Nc3ccc(N4CCN(C)CC4)cc3C)nc1-2 [Example 64, N-(2-ethyl-6-methyl-phenyl)-2-[2-methyl-4-(4-methylpiperazin-1-yl)anilino]-5,6-dihydropyrimido[4,5-e]indolizine-7-carboxamide] cannot be ordered by IC50: less than 50 nM for the first, less than 50 nM for the second.

Cc1cc(N2CCN(C)CC2)ccc1Nc1ncc2c(n1)-n1ccc(C(=O)Nc3c(C)cccc3Br)c1CC2 [Example 65, N-(2-bromo-6-methyl-phenyl)-2-[2-methyl-4-(4-methylpiperazin-1-yl)anilino]-5,6-dihydropyrimido[4,5-e]indolizine-7-carboxamide] and Cc1cc(N2CCN(C)CC2)ccc1Nc1ncc2c(n1)-n1ccc(C(=O)Nc3c(Cl)cccc3Cl)c1CC2 [Example 66, N-(2,6-dichlorophenyl)-2-[2-methyl-4-(4-methylpiperazin-1-yl)anilino]-5,6-dihydropyrimido[4,5-e]indolizine-7-carboxamide] cannot be ordered by IC50: less than 50 nM for the first, less than 50 nM for the second.
